Measured values reported in US10619138B2, “Herbicide-resistant hydroxyphenylpyruvate dioxygenases” (BASF SE, priority 2013, dated 2020).

Columns and labels:
[1] = tested on: Geodermatophilus HPPD (SEQ ID NO: 32); experiment: In vitro HPPD activity assay, tolerance index; type: biochemical, Geodermatophilus obscurus; details: normalized on Arabidopsis wild-type HPPD
Method: (§1) The activity assay for HPPD is based on the analysis of homogentisic acid by reversed phase HPLC.
(§2) The assay mixture can contain 150 mM potassium phosphate buffer pH 7.0, 50 mM L-ascorbic acid, 100 μM Catalase (Sigma-Aldrich), 1 μM FeSO4 and 0.2 units of purified HPPD enzyme in a total volume of 505 μl. 1 unit is defined as the amount of enzyme that is required to produce 1 nmol of HGA per minute at 20° C.
(§3) The reaction is allowed to proceed for 45 min at room temperature. The reaction is stopped by the addition of 50 μl of 4.5 M phosphoric acid. The sample is filtered using a […] pore size PVDF filtration device.
(§4) 5 μl of the cleared sample is analyzed on an UPLC HSS T3 column (particle size 1.8 μm, dimensions 2.1×50 mm; Waters) by isocratic elution using 90% 20 mM NaH2PO4 pH 2.2, 10% methanol (v/v).
(§5) HGA is detected electrochemically at 750 mV (mode: DC; polarity: positive) and quantified by integrating peak areas (Empower software; Waters).
(§6) Inhibitors are dissolved in DMSO (dimethylsulfoxide) to a concentration of 0.5 mM. From this stock solution serial five-fold dilutions are prepared in DMSO, which are used in the assay. The respective inhibitor solution accounts for 1% of the assay volume. Thus, final inhibitor concentrations range from 5 μM to 320 pM, respectively. Activities are normalized by setting the uninhibited enzyme activity to 100%. IC50 values are calculated using non-linear regression.
(§7) Using methods which are described in the above examples or well known in the art, purified, recombinant wildtype HPPD enzymes are characterized with respect to their kinetic properties and sensitivity towards HPPD inhibiting herbicides. Apparent michaelis constants (Km) and maximal reaction velocities (Vmax) are calculated by non-linear regression with the software GraphPad Prism 5 (GraphPad Software, La Jolla, USA) using a substrate inhibition model. […] Weighted means (by standard error) of Km and IC50 values are calculated from at least three independent experiments. The Cheng-Prusoff equation for competitive inhibition (Cheng, Y. C.; Prusoff, W. H. Biochem Pharmacol 1973, 22, 3099-3108) is used to calculate dissociation constants (Ki).
(§8) Field performance of the HPPD enzyme, which is used as a herbicide tolerance trait may depend not only on its lack of sensitivity towards HPPD inhibiting herbicides but also on its activity. To assess the potential performance of a herbicide tolerance trait a tolerance index (TI) is calculated using the following formula: […]
(§9) Easy comparison and ranking of each trait is enabled by normalizing tolerance indexes on Arabidopsis wild-type HPPD.

[2] = molecular target: T1, Arabidopsis HPPD (SEQ ID NO: 42) (Arabidopsis thaliana, UniProt P93836); experiment: In vitro HPPD activity assay (HGA by HPLC), wildtype enzyme characterization; type: biochemical; details: for TI (normalized tolerance index): normalized on Arabidopsis wild-type HPPD, reference enzyme
T1 construct: Arabidopsis (42); His tag; made in house; host or cells: E. coli BL21 (DE3)
T1 sequence (P93836 1-445): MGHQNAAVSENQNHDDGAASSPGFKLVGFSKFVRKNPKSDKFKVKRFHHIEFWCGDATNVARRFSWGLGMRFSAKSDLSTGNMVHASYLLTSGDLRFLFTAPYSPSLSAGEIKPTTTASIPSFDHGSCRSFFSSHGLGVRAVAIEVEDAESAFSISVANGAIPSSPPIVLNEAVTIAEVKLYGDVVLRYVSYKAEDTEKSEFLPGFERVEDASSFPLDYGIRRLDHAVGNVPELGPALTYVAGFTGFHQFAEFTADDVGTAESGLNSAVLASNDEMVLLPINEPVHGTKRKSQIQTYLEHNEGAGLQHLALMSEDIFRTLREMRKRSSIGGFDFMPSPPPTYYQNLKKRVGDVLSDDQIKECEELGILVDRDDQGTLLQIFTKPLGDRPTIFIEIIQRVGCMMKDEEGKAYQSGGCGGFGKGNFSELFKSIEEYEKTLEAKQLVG
Method: as §1, §2, §3, §4, §5
as §6, with “Thus, final inhibitor concentrations range from 5 μM to 320 pM, respectively.” left out
as §7, with “experiments.” for “experiments. The Cheng-Prusoff equation for competitive inhibition (Cheng, Y. C.; Prusoff, W. H. Biochem Pharmacol 1973, 22, 3099-3108) is used to calculate dissociation constants (Ki).”
as §8, §9

[3] = tested on: Nitritalea HPPD (SEQ ID NO: 14); experiment: In vitro HPPD activity assay, tolerance index; type: biochemical, Nitritalea halalkaliphila; details: normalized on Arabidopsis wild-type HPPD
Method: as §1, §2, §3, §4, §5, §6, §7, §8, §9

[4] = tested on: Scenedesmus HPPD (SEQ ID NO: 4); experiment: In vitro HPPD activity assay, tolerance index; type: biochemical, Scenedesmus obliquus; details: normalized on Arabidopsis wild-type HPPD
Method: as §1, §2, §3, §4, §5, §6, §7, §8, §9

[5] = tested on: Belliella HPPD (SEQ ID NO: 12); experiment: In vitro HPPD activity assay, tolerance index; type: biochemical, Belliella baltica; details: normalized on Arabidopsis wild-type HPPD
Method: as §1, §2, §3, §4, §5, §6, §7, §8, §9

[6] = tested on: Herpetosiphon HPPD (SEQ ID NO: 26); experiment: In vitro HPPD activity assay, tolerance index; type: biochemical, Herpetosiphon aurantiacus; details: normalized on Arabidopsis wild-type HPPD
Method: as §1, §2, §3, §4, §5, §6, §7, §8, §9

[7] = tested on: Algoriphagus HPPD (SEQ ID NO: 22); experiment: In vitro HPPD activity assay, tolerance index; type: biochemical, Algoriphagus machipongonensis; details: normalized on Arabidopsis wild-type HPPD
Method: as §1, §2, §3, §4, §5, §6, §7, §8, §9

| Compound | TI (normalized tolerance index) [1] | TI (normalized tolerance index) [2] | TI (normalized tolerance index) [3] | TI (normalized tolerance index) [4] | TI (normalized tolerance index) [5] | TI (normalized tolerance index) [6] | Ki [2] [nM] | TI (tolerance index) ([2]; not normalized) | TI (normalized tolerance index) [7] |
| --- | --- | --- | --- | --- | --- | --- | --- | --- | --- |
| CS(=O)(=O)c1ccc(C(=O)C2C(=O)CCCC2=O)c([N+](=O)[O-])c1 [Inhibitor 2, 2-(4-methylsulfonyl-2-nitro-benzoyl)cyclohexane-1,3-dione] | 0.7 | 1 | 0 | 0.1 | 0.1 | 0.4 | – | – | – |
| CN(c1c(Cl)ccc(C2=C(O)c3ncccc3C(C)(C)S2(=O)=O)c1Cl)S(C)(=O)=O [Inhibitor 4, N-[2,6-dichloro-3-(8-hydroxy-5,5-dimethyl-6,6-dioxo-thiopyrano[4,3-b]pyridin-7-yl)phenyl]-N-methyl-methanesulfonamide] | – | 1 | – | – | – | – | 29 | 23.8E−3 | 132.5 |
| CSc1c(Cl)cc(F)c(C(=O)Nc2nnnn2C)c1Cl [Inhibitor 11, 2,4-dichloro-6-fluoro-3-methylsulfanyl-N-(1-methyltetrazol-5-yl)benzamide] | 0.2 | 1 | 0 | 0.3 | 0 | 0.2 | – | – | – |
